Values quoted from earlier work as cited in US8541025B2, “Co-crystals and pharmaceutical formulations comprising the same” (Vertex Pharmaceuticals Incorporated, priority 2008, dated 2013).
Read-outs that look alike come from different tables or passages of the source.

Biological target: hepatitis C virus ("HCV") NS3/4A protease (Hepatitis C virus genotype 1a, UniProt P27958)
Sequence (P27958 1027-1657): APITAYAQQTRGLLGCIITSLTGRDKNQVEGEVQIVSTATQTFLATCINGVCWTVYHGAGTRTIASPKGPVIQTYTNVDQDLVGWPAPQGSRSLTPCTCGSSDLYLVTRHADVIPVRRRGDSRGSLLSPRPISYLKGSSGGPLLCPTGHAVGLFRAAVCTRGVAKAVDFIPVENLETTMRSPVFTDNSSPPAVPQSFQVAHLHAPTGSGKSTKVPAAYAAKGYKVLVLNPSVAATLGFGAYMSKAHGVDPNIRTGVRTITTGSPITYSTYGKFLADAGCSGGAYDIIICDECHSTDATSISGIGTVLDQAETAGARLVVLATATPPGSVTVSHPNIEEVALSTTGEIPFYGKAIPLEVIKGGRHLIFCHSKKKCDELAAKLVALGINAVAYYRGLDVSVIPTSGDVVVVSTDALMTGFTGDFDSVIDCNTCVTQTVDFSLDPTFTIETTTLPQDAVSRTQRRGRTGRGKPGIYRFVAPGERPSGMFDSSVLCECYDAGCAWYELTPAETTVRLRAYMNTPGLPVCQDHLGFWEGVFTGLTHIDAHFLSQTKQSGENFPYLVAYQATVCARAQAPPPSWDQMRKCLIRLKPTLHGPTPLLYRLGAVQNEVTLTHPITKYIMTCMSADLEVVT
Sequence (P27958 1658-1711): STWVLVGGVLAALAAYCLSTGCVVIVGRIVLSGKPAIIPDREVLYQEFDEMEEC

Compound: CC[C@H](NC(=O)[C@@H]1[C@H]2CCC[C@H]2CN1C(=O)[C@@H](NC(=O)C(NC(=O)c1cnccn1)C1CCCCC1)C(C)(C)C)C(=O)C(=O)NC1CC1 (some centres unmarked) [VX-950]
- Ki (competitive, reversible inhibitor, read-out: steady state binding constant (ki*)): 3 nM
- Ki (read-out: Ki): 8 nM
